Data published in US20130184302A1, “METHODS FOR TREATING IRRITABLE BOWEL SYNDROME (IBS) AND INFECTIONS” (priority 2011, published 2013).

Legend:
Type in all cases: in vivo, human
[1] = system: patients with non-constipation IBS (non-C IBS); test: Stool frequency, rifaximin 550 mg TID study
[2] = system: patients with non-constipation IBS (non-C IBS); test: Adverse events and discontinuation, rifaximin 550 mg TID study; details: 550 mg rifaximin TID
subjects with IBS = test: Analysis of two studies after 3 months: global IBS symptoms, abdominal pain, bloating responders; details: for Responders: Abdominal pain reduction of 1 point in median: at least 2 weeks during PEP; for Global IBS symptoms: at least 2 out of 4 weeks adequate relief during weeks 3 through 6 (weekly question): 550 mg TID 14 days
Description: A measure of efficacy is based on subjects' answers to the Weekly Subject Global Assessment (SGA) questions over the study duration in relation to their IBS symptoms.
The study endpoints of the studies were Global IBS symptoms and AUC in abdominal pain during the study.
The primary and secondary endpoints evaluated in this study were the effect of treatment on the percentage of subjects who reported adequate relief of Global IBS symptoms, reduction in abdominal pain and the adequate relief of IBS symptom of bloating.

[3] = system: C. difficile infection (CDI); test: CDI trial rifaximin 400 mg TID vs vancomycin 125 mg QID: clinical success at Test of Cure
Procedure: Criteria for entry into the trial were: • Age>=18 years old; • Had acute diarrhea at screening defined as >=3 unformed stools in the last 24 hours and at least one sign of enteric infection (fever, nausea, lose of appetite, vomiting, severe abdominal pain/discomfort); and • a positive C. diff stool toxin assay
The primary efficacy endpoint of the study was defined as the proportion of subjects achieving clinical success. Specifically, clinical success was defined as the absence of severe abdominal pain at Test of Cure (TOC), absence of fever (<38° C.) at TOC, and <3 unformed stools for two consecutive days at TOC.
The non-inferiority margin for the primary endpoint was defined as lower bound of 95% CI of delta above −15%.
Clinical success was defined as the: Absence of severe abdominal pain at TOC, absence of fever (<38° C.) at TOC, and <3 unformed stools for two consecutive days at TOC. Test of cure defined as Day 14+/−1 day.

[4] = at TOC (Day 14+/−1), Rifaximin N = 117, Vancomycin N = 115

CO[C@H]1/C=C/O[C@@]2(C)Oc3c(C)c(O)c4c(O)c(c5c(nc6cc(C)ccn65)c4c3C2=O)NC(=O)/C(C)=C\C=C\[C@H](C)[C@H](O)[C@@H](C)[C@@H](O)[C@@H](C)[C@H](OC(C)=O)[C@@H]1C [Rifaximin, (2S,16Z,18E,20S,21S,22R, 23R,24R,25S,26S,27S,28E)-5,6,21,23,25 Pentahydroxy-27-methoxy-2,4,11,16,20,22,24,26-octamethyl-2,7-(epoxypentadeca-(1,11,13)trienimino) benzofuro (4,5-e) pyrido(1,2,-a) benzimidazole-1,15(2H)-dione,25-acetate]
% with decrease in SF (stool frequency) ([1]; Week 7): 23.8% | % with decrease in SF (stool frequency) ([1]; Week 8): 24.4% | % with decrease in SF (stool frequency) ([1]; Week 9): 25.4% | % with decrease in SF (stool frequency) ([1]; Week 10): 26.7% | % with decrease in SF (stool frequency) ([1]; Week 11): 25.4% | % with decrease in SF (stool frequency) ([1]; Week 12): 27.0% | Subjects with skin or subcutaneous tissue disorders [2]: 1.3% | IBS symptom of Bloating: at least 2 out of 4 weeks adequate relief during weeks 3 through 6 (subjects with IBS; Combined): 30% vs 40% | Responders: Abdominal Pain reduction of 2 point in mean (subjects with IBS; Combined): 18% vs 25% | Responders: Abdominal Pain reduction of 2 point in median (subjects with IBS; Combined): 32% vs 39% | Responders: Abdominal Pain reduction of 3 point in mean (subjects with IBS; Combined): 6% vs 7% | Responders: Abdominal Pain reduction of 3 point in median (subjects with IBS; Combined): 18% vs 21% | Responders: Abdominal pain reduction of 1 point in mean (subjects with IBS; Combined): 42% vs 52% | Responders: Daily abdominal pain <2 (subjects with IBS; Combined): 31% vs 39% | Responders: Overall reduction of mean weekly abdominal pain by > = 25% (subjects with IBS; Combined): 47% vs 57% | Responders: Overall reduction of mean weekly abdominal pain by > = 50% (subjects with IBS; Combined): 28% vs 35% | Responders: Overall reduction of mean weekly abdominal pain by > = 75% (subjects with IBS; Combined): 11% vs 14% | Responders: Overall reduction of median weekly abdominal pain by > = 25% (subjects with IBS; Combined): 52% vs 62% | Responders: Overall reduction of median weekly abdominal pain by > = 50% (subjects with IBS; Combined): 34% vs 44% | Responders: Overall reduction of median weekly abdominal pain by > = 75% (subjects with IBS; Combined): 18% vs 21% | Responders: Abdominal pain reduction of 1 point in median (subjects with IBS; Combined): 53% vs 63% | IBS symptom of Bloating: at least 2 out of 4 weeks adequate relief during weeks 3 through 6 (subjects with IBS; Study 2): 32% vs 41% | Responders: Abdominal Pain reduction of 2 point in mean (subjects with IBS; Study 2): 18% vs 25% | Responders: Abdominal Pain reduction of 2 point in median (subjects with IBS; Study 2): 30% vs 41% | Responders: Abdominal Pain reduction of 3 point in mean (subjects with IBS; Study 2): 6% vs 7% | Responders: Abdominal Pain reduction of 3 point in median (subjects with IBS; Study 2): 17% vs 21% | Responders: Abdominal pain reduction of 1 point in mean (subjects with IBS; Study 2): 43% vs 52% | Responders: Daily abdominal pain <2 (subjects with IBS; Study 2): 31% vs 39% | Responders: Overall reduction of mean weekly abdominal pain by > = 25% (subjects with IBS; Study 2): 47% vs 58% | Responders: Overall reduction of mean weekly abdominal pain by > = 50% (subjects with IBS; Study 2): 29% vs 35% | Responders: Overall reduction of mean weekly abdominal pain by > = 75% (subjects with IBS; Study 2): 11% vs 14% | Responders: Overall reduction of median weekly abdominal pain by > = 25% (subjects with IBS; Study 2): 52% vs 62% | Responders: Overall reduction of median weekly abdominal pain by > = 50% (subjects with IBS; Study 2): 35% vs 44% | Responders: Overall reduction of median weekly abdominal pain by > = 75% (subjects with IBS; Study 2): 17% vs 20% | Responders: Abdominal pain reduction of 1 point in median (subjects with IBS; Study 2): 53% vs 62% | IBS symptom of Bloating: at least 2 out of 4 weeks adequate relief during weeks 3 through 6 (subjects with IBS; Study [1]): 29% vs 40% | Responders: Abdominal Pain reduction of 2 point in mean (subjects with IBS; Study [1]): 18% vs 26% | Responders: Abdominal Pain reduction of 2 point in median (subjects with IBS; Study [1]): 33% vs 37% | Responders: Abdominal Pain reduction of 3 point in mean (subjects with IBS; Study [1]): 6% vs 7% | Responders: Abdominal Pain reduction of 3 point in median (subjects with IBS; Study [1]): 19% vs 22% | Responders: Abdominal pain reduction of 1 point in mean (subjects with IBS; Study [1]): 41% vs 52% | Responders: Overall reduction of mean weekly abdominal pain by > = 25% (subjects with IBS; Study [1]): 47% vs 56% | Responders: Overall reduction of mean weekly abdominal pain by > = 50% (subjects with IBS; Study [1]): 28% vs 36% | Responders: Overall reduction of mean weekly abdominal pain by > = 75% (subjects with IBS; Study [1]): 10% vs 14% | Responders: Overall reduction of median weekly abdominal pain by > = 25% (subjects with IBS; Study [1]): 52% vs 63% | Responders: Overall reduction of median weekly abdominal pain by > = 50% (subjects with IBS; Study [1]): 34% vs 44% | Responders: Overall reduction of median weekly abdominal pain by > = 75% (subjects with IBS; Study [1]): 19% vs 23% | Responders: Abdominal pain reduction of 1 point in median (subjects with IBS; Study [1]): 52% vs 63% | Responders: Daily abdominal pain <2 (subjects with IBS; Study [1], at least 50% of days in a week for at least 2 weeks during PEP): 32% vs 40% | Global IBS symptoms: at least 2 out of 4 weeks adequate relief during weeks 3 through 6 (weekly question) (subjects with IBS; first column (Study 1), second figure of 'x vs y'): 41% | Global IBS symptoms: at least 2 out of 4 weeks adequate relief during weeks 3 through 6 (weekly question) (subjects with IBS; second column (Study 2)): 41% | Global IBS symptoms: at least 2 out of 4 weeks adequate relief during weeks 3 through 6 (weekly question) (subjects with IBS; third column (Combined)): 41% | Clinical Success: Treatment Difference ([3]; Rifaximin vs Vancomycin, at TOC): −6.2% | Clinical Success: Yes, number of subjects ([3]; at TOC (Day 14+/−1), Rifaximin 400 mg TID N = 117, Vancomycin 125 mg QID N = 115): 67 | Clinical Success: No, number of subjects [3, 4]: 50 | Clinical Success: No, percent of subjects [3, 4]: (43%) | Clinical Success: Yes, percent of subjects [3, 4]: (57%)
